Source: patent publication US20100297692A1, “REACTION MEDIUM FOR DETECTING AND/OR IDENTTIFYING STAPHYLOCCOUS AUREUS” (BIOMERIEUX, priority 2007, published 2010)

Experiments:
S. aureus (MRSA) = assay: β-D-ribosidase substrates in Columbia agar, colored or fluorescent colonies; assay type: cell-based, Staphylococcus aureus; conditions: 400 mg/L + ammoniacal iron citrate 100 mg/l
Procedure: (§1) The media hereinafter were prepared in 200 ml of a Columbia agar base (Oxoid), in combination with the chromogenic β-D-ribosidase substrates. The various substrates and also the concentrations and the additives used in the media are described in Table 1 below:
(§2) The β-D-ribosidase substrates are solubilized in DMSO and added to the media so as to obtain the concentrations indicated in Table 1.
(§3) 191 bacterial strains were inoculated onto each of the media using a suspension at 0.5 MacFarland diluted to 1/1000. The dishes were incubated at 37° C. and then read.
(§4) The media were distributed into Petri dishes, then inoculated with approximately 100 000 CFU, then incubated at 37° C. for 48 h. The colonies formed were examined visually after incubation times of 18, 24 and 48 hours.
(§5) The stock collection of 191 strains comprised: […], 48 Staphylococcus spp, 61 Enterococcus spp and 3 alpha-hemolytic Streptococcus.

S. aureus (MSSA) = assay: as above; assay type: cell-based, Staphylococcus aureus; conditions: 400 mg/L + ammoniacal iron citrate 100 mg/l
Procedure: as §1, §2, §3, §4, §5

[1] = test system: Coagulase-negative Staphylococci; assay: as above; assay type: cell-based, Staphylococcus spp; conditions: Coagulase-negative Staphylococci, 400 mg/L + ammoniacal iron citrate 100 mg/l
Procedure: as §1, §2, §3, §4, §5

Micrococcus luteus = assay: as above; assay type: cell-based; conditions: 400 mg/L + ammoniacal iron citrate 100 mg/l
Procedure: [The procedure below names another organism; the source lists this organism under the same test.] as §1, §2, §3, §4, §5

Enterococci = assay: as above; assay type: cell-based, Enterococcus spp; conditions: 400 mg/L + ammoniacal iron citrate 100 mg/l
Procedure: as §1, §2, §3, §4, §5

[2] = test system: Alpha-hemolytic streptococci; assay: as above; assay type: cell-based, alpha-hemolytic Streptococcus; conditions: 400 mg/L + ammoniacal iron citrate 100 mg/l
Procedure: as §1, §2, §3, §4, §5

[3] = test system: S. aureus (MRSA and MSSA); assay: Catechol-β-D-riboside in a liquid medium, coloration; assay type: cell-based, Staphylococcus aureus
Procedure: (§6) The medium hereinafter had the same composition as a chromID S. aureus base (bioMérieux), with no selective agents nor agar, so as to obtain a liquid medium. The substrates and inducers were replaced, before autoclaving, with […] of catechol-β-D-riboside, solubilized in DMSO, and with ammoniacal iron citrate at 500 mg/l. The medium was then distributed into tubes in a proportion of 1.5 ml/tube.
For this medium, the inoculation was carried out using precultures prepared for 24 h at 37° C. A suspension of physiological saline at 0.5 McF was prepared and then each tube was inoculated with 10 μl of bacterial suspension. […]
(§7) In total, 11 staphylococcus strains were tested; 5 S. aureus and 6 of other species of the Staphylococcus genus (coagulase-negative).

Coagulase-negative = assay: as above; assay type: cell-based
Procedure: as §6
For this medium, the inoculation was carried out using precultures prepared for 24 h at 37° C. A suspension of physiological saline at 0.5 McF was prepared and then each tube was inoculated with 10 μl of bacterial suspension.
(§8) The readings were carried out after 24 and 48 hours of incubation at 37° C.
as §7

S aureus (MRSA and MSSA) = assay: Catechol-β-D-riboside and X-β-D-riboside on a broad panel of Staphylococcus spp; assay type: cell-based; conditions: GTS medium, 300 mg/l substrate, 500 mg/l ammoniacal iron citrate
Procedure: (§9) Catechol-β-D-riboside: A GTS medium (bioMérieux) supplemented with 300 mg/l of catechol-β-D-riboside, then autoclaved, and with 500 mg/l of ammoniacal iron citrate was used and distributed into Petri dishes 55 mm in diameter.
(§10) X-β-D-riboside: A modified Chapman medium, without NaCl, autoclaved and supplemented with 60 mg/l of X-β-D-riboside, was used and distributed into Petri dishes 55 mm in diameter.
For the two media, the inoculation was carried out using precultures prepared for 24 h at 37° C. A suspension in physiological saline at 0.5 McF was prepared and then each strain was inoculated onto a dish using a 10 μl calibrated loop. […]
(§11) In total, […] were tested: 34 S. aureus, including 25 MRSAs, and 46 other species of Staphylococcus (including S. schleiferi; S. capitis; S. hyicus; S. intermedius; S. haemolyticus; S. auricularis; S. hominis; S. warneri; S. chromogenes; S. cohnii; S. epidermidis; S. sciuri; S. xylosus; S. saprophyticus).

Coag neg = assay: as above; assay type: cell-based; conditions: GTS medium, 300 mg/l substrate, 500 mg/l ammoniacal iron citrate
Procedure: as §9, §10
For the two media, the inoculation was carried out using precultures prepared for 24 h at 37° C. A suspension in physiological saline at 0.5 McF was prepared and then each strain was inoculated onto a dish using a 10 μl calibrated loop.
as §8, §11

% of strains producing colored or fluorescent colonies (S. aureus (MRSA); 18 h): 100%
% of strains producing colored or fluorescent colonies (S. aureus (MRSA); 24 h): 100%
% of strains producing colored or fluorescent colonies (S. aureus (MRSA); 48 h): 100%
% of strains producing colored or fluorescent colonies (S. aureus (MSSA); 18 h): 100%
% of strains producing colored or fluorescent colonies (S. aureus (MSSA); 24 h): 100%
% of strains producing colored or fluorescent colonies (S. aureus (MSSA); 48 h): 100%
% of strains producing colored or fluorescent colonies (Micrococcus luteus; 18 h): 0%
% of strains producing colored or fluorescent colonies (Micrococcus luteus; 24 h): 0%
% of strains producing colored or fluorescent colonies (Micrococcus luteus; 48 h): 0%
% of strains producing colored or fluorescent colonies (Enterococci; 18 h): 2%
% of strains producing colored or fluorescent colonies (Enterococci; 24 h): 2%
% of strains producing colored or fluorescent colonies (Enterococci; 48 h): 2%
Number of strains producing a coloration, Positive at 18 h (Coagulase-negative; 300 ml/g catechol-β-D-riboside, ammoniacal iron citrate 500 mg/l, coagulase-negative, 18 h): 0/6
Number of strains producing a coloration, Positive at 24 h (Coagulase-negative; 300 ml/g catechol-β-D-riboside, ammoniacal iron citrate 500 mg/l, coagulase-negative, 24 h): 0/6
Number of strains producing a coloration, Positive at 48 h (Coagulase-negative; 300 ml/g catechol-β-D-riboside, ammoniacal iron citrate 500 mg/l, coagulase-negative, 48 h): 1/6
SMILES: OC[C@H]1O[C@@H](Oc2ccccc2O)[C@H](O)[C@@H]1O [Catechol-β-riboside, 2-Hydroxyphenyl-beta-D-riboside]
% of strains producing colored or fluorescent colonies ([1]; 18 h): 3%
% of strains producing colored or fluorescent colonies ([1]; 24 h): 3%
% of strains producing colored or fluorescent colonies ([1]; 48 h): 3%
% of strains producing colored or fluorescent colonies ([2]; 18 h): 0%
% of strains producing colored or fluorescent colonies ([2]; 24 h): 0%
% of strains producing colored or fluorescent colonies ([2]; 48 h): 0%
Number of strains producing a coloration, Positive at 18 h ([3]; 300 ml/g catechol-β-D-riboside, ammoniacal iron citrate 500 mg/l, S. aureus, 18 h): 5/5
Number of strains producing a coloration, Positive at 24 h ([3]; 300 ml/g catechol-β-D-riboside, ammoniacal iron citrate 500 mg/l, S. aureus, 24 h): 5/5
Number of strains producing a coloration, Positive at 48 h ([3]; 300 ml/g catechol-β-D-riboside, ammoniacal iron citrate 500 mg/l, S. aureus, 48 h): 5/5
coloration for S. aureus ([3]; from 18 hours onward): 100%
detection of the other species of the Staphylococcus genus (Coagulase-negative; from 18 hours onward): none of the other species of the Staphylococcus genus were detected
Number of strains producing a coloration/total number of strains, positive at 18 h (S aureus (MRSA and MSSA); 18 h): 19/34
Number of strains producing a coloration/total number of strains, positive at 24 h (S aureus (MRSA and MSSA); 24 h): 31/34
Number of strains producing a coloration/total number of strains, positive at 48 h (S aureus (MRSA and MSSA); 48 h): 34/34
Number of strains producing a coloration/total number of strains, positive at 18 h (Coag neg; 18 h): 10/46
Number of strains producing a coloration/total number of strains, positive at 24 h (Coag neg; 24 h): 14/46
Number of strains producing a coloration/total number of strains, positive at 48 h (Coag neg; 48 h): 14/46
